Source: patent US5545638A, “Method of treating gastrointestinal motility disorders” (Novo Nordisk A/S, priority 1995, dated 1996)
Counter-ions that a name gives are not always drawn.

Molecular target: muscarinic receptors
Assay: Inhibition of ^3 H-oxotremorine-M binding to muscarinic receptors
Set-up: species or system rat (male Sprague-Dawley, cerebral cortex)
Settings: 3 nM ^3 H-oxotremorine-M, rat cerebral cortical membranes, 15 min, 25° C., pH 7.4; concentration to inhibit specific binding 50%; read-out: Inhibition of ^3 H-Oxo
Method: The affinity of the compounds for the muscarinic receptors was determined using the non-selective agonist ligand, ^3 H-oxotremorine-M. Birdsdall N. J. M., Hulme E. C., and Burgen A. S. V., "The Character of Muscarinic Receptors in Different Regions of the Rat Brain", 207 Proc. Roy. Soc. 1 (London, Series B, 1980). Each compound was tested to determine the affinity of the compound for the muscarinic receptors using the following procedure.
For each in vitro binding, male Sprague-Dawley (Harlan Sprague-Dawley, Indianapolis, Ind.) rats weighing from about 100 to about 150 grams each were sacrificed by decapitation. The brains were quickly removed and the cerebral cortex were dissected from the brain. The cerebral cortex tissue was homogenized in 10 volumes of 0.32M sucrose and homogenized for about 10 minutes at about 1000×g. […]
The aforementioned homogenates mixture was incubated for about 15 minutes at about 25° C. and then the homogenates were filtered through glass filters (Whatman, GF/C) with vacuum. The filters were washed 3 times with about 2 ml of cold tris-Cl buffer, and placed in scintillation vials containing about 10 ml of scintillation fluid (Ready Protein+, Beckman, Fullerton, Calif.). Radioactivity trapped on the filters was determined by liquid scintillation spectrometry. Nonspecific binding was determined using 1 μM atropine. […]

- IC50: 2.7 nM
SMILES: C=CCCCCOc1nsnc1C1=CCCN(C)C1 [Compound 33, 3-(3-(5-Hexenyloxy)-1,2,5-thiadiazol-4-yl)-1,2,5,6-tetrahydro-1-methylpyridine oxalate]
